Source: patent US11389456B2, “Compounds and methods for treating oxalate-related diseases” (OxaluRx, Inc., priority 2018, dated 2022)
≈ marks a conversion by molar mass, not a printed value.

Legend:
[1] = target: recombinant full-length human hydroxyacid oxidase 1 (HAO1), the equivalent of hGOX (Homo sapiens (Human), UniProt Q9UJM8); assay: In-vitro human glycolate oxidase (hGOX) assay (Amplex red/HRP fluorescence); assay type: biochemical
Experimental: Biological Activity Assay: In-Vitro Human Glycolate Oxidase (hGOX) Assay
The in-vitro glycolate oxidase assay was performed using recombinant full-length human hydroxyacid oxidase 1 (HAO1), the equivalent of hGOX. […] Purified HAO1 was dissolved in assay buffer consisting of 10 mM NaCl, 110 mM KCl, 2 mM MgCl2, 50 mM HEPES (pH 7.4) and 0.01% Triton™ X-100.

[2] = Solubility in phosphate buffered saline (PBS), pH 7.4; assay type: physicochemical; settings: phosphate buffer (PBS), aqueous buffer, kinetic from dmso stock; phosphate buffered saline pH 7.4, 1% DMSO, 1 hour shaking at room temperature
Experimental: (§1) For testing compound solubility in phosphate buffered saline (PBS), compound stock solutions were prepared at 10 mM in 100% DMSO. For testing in aqueous solution, the phosphate buffer was replaced with deionized, distilled water. Eleven grams Na2HPO4 (FW: 141.96 g/mol) and 3.5 g NaH2PO4.2H2O (FW: 156.03 g/mol) was added to 1 L Milli-Q water and adjusted to a pH to 7.4 with phosphoric acid or sodium hydroxide. For incubation, media were preheated to 37° C. Eight μL aliquots of reference and test compound stock solutions (10 mM) were added into 792 μL of 100 mM phosphate buffer (pH 7.4). The final DMSO concentration was 1%. Sample tubes were shaken for 1 hour at 1000 rpm at room temperature.
(§2) The calibration curve was prepared with 300-μM spiking solution (SS) in MeOH:acetonitrile (4:1). Six μL of 10 mM compound was added in 194 μL MeOH/acetonitrile (4:1). Samples were centrifuged for 10 minutes at 12,000 rpm to precipitate undissolved particles. Supernatants were transferred to a new tube or plate and dilute 10-fold and 100-fold with 100 mM buffer. Samples were prepared for LC-MS/MS analysis by adding 5 μL each sample (undiluted, 10-fold diluted, and 100-fold diluted) and 5 μL of standard curve samples to 95 μL of acetonitrile (containing internal standard).

[3] = Solubility in aqueous solution (deionized, distilled water); assay type: physicochemical; settings: kinetic from dmso stock, 1% DMSO, read-out: Aqueous Solubility H2O
Experimental: as §1, §2

[4] = Metabolic stability in human liver microsomal preparation; assay type: in vitro ADME; settings: pH 7.4, human liver microsomes, NADPH, 37° C.; for half-life at 1 μM: 0-45 min, read-out: Metabolic Stability t1/2
Experimental: For evaluating the metabolic stability in human liver microsomal preparation, three buffers were prepared. Buffer A had 1.0 L of 0.1 M monobasic potassium phosphate buffer containing 1.0 mM EDTA. Buffer B had 1.0 L of 0.1 M dibasic potassium phosphate buffer containing 1.0 mM EDTA. Buffer C had 0.1 M potassium phosphate buffer, 1.0 mM EDTA, adjusted to a pH 7.4 via titrating 700 mL buffer B with buffer A. Reference compound (ketanserin) and test compounds spiking solutions (500 μM) were prepared by adding 10 μL of 10 mM DMSO stock compound solution into 190 μL acetonitrile. A volume of 1.5 μL 500 μM spiking solution and 18.75 μL 20 mg/mL human liver microsomes were added into 479.75 μL of Buffer C on ice. A stock solution of 6 mM NADPH was prepared by dissolving NADPH into Buffer C.
Wells on an assay plate were iced and filled with 30 μL 1.5-μM spiking solution containing 0.75 mg/mL microsomes solution and designated for different timepoints (0-, 5-, 15-, 30-, 45-min). For the 0-min timepoint, 135 μL acetonitrile containing internal standard were added followed by 15 μL of NADPH stock solution (6 mM). All other plates were preincubated at 37° C. for 5 minutes and 15 μL NADPH stock solution (6 mM) were added to the plates to start the reaction. At 5-min, 15-min, 30-min, and 45-min, 135 μL acetonitrile containing internal standard were added to the wells of corresponding plates, respectively, to stop the reaction. After quenching, the plates were shaken on the vibrator (IKA, MTS 2/4) for 10 min at 600 rpm and then centrifuged at 5594×g for 15 minutes (Thermo Multifuge×3R). Fifty μL supernatant from each well were transported into a 96-well sample plate containing 50 μL of ultra-pure water (Millipore, ZMQS50F01) for LC/MS analysis.

[5] = Stability in human plasma; assay type: in vitro ADME; settings: read-out: Plasma Stability T1/2
Experimental: Stability in Human Plasma.
Stock compounds were prepared for testing the stability in human plasma. First, 0.05 M sodium phosphate and 0.07 M NaCl buffer, pH 7.4, were pre-heated. In deionized water, 14.505 g/L Na2HPO 12H2O, 1.483 g/L NaH2PO4.2H2O and 4.095 g/L NaCl were dissolved. The basic solution was titrated with the phosphoric acid to pH 7.40. Frozen plasma was quickly thawed at 37° C. The plasma was centrifuged at 3,000 rpm for 8 minutes to remove clots, then pipetted and pooled as the plasma stock for the experiment. Only plasma within the range of pH 7.4 to pH 8 was used. If higher than pH 8, the plasma was discarded. The initial pH of the plasma was not adjusted to pH 7.4 with acid or by bubbling with carbon dioxide. By using a 5% carbon dioxide incubator and PBS buffer, a pH of 7.4 will be reached after the 4-hour equilibrium dialysis time. Plasma was iced until use.
Spiking solution A with 0.5 mM testing compounds was prepared by adding 10 μL of 10 mM test compounds stock solution to 190 μL DMSO. Spiking solution B with 0.02 mM testing compound was prepared by adding 40 μL of spiking solution A to 960 μL of […] sodium phosphate buffer with 0.5% BSA. The plasma and spiking solution B were prewarmed at 37° C. for 5 minutes. Ten μL of pre-warmed spiking solution B was added into the wells designated for all the time points (5, 15, 30, 45, 60 minutes). For the 0-minute timepoint, 400 μL acetonitrile containing internal standard were added to the wells of 0-minute plate and then 90 μL plasma were added. For the other timepoints, 90 μL of pre-warmed plasma were added into the wells (0, 5, 15, 30, 45, 60 minutes) and the timing was started. At 5, 15, 30, 45, 60 minutes, 400 μL acetonitrile containing internal standard were added to the wells of corresponding plates, respectively, to stop the reaction. After quenching, the plates were shaken on a vibrator (IKA, MTS 2/4) for 10 minutes at 600 rpm and then centrifuged at 5594×g for 15 minutes (Thermo Multifuge×3R). Fifty μL of supernatant was transferred from each well into a 96-well sample plate containing 50 μL ultra-pure water (Millipore, ZMQS50F01) for LC/MS analysis.

[6] = Protein binding (plasma equilibrium dialysis); assay type: in vitro ADME; settings: 5 hours at 37° C.; for fraction unbound at 5 h, 1 μM: read-out: Protein Binding Fraction Bound (converted)
Experimental: For testing protein binding of stock compounds solubilized in DMSO, spiking solutions of test and reference compounds were prepared. Solution A (0.5 mM) was prepared by adding 10 μL of 10 mM stock solution into 190 μL of DMSO. Solution B (0.02 mM) was prepared by adding 8 μL of Solution A into 192 μL of 0.05 M sodium phosphate buffer. The final DMSO concentration in Solution B was 4%.
To prepare test and reference compounds in plasma, a 96-well plate with 380 μL aliquots of plasma in the wells designed for plasma and buffer, respectively. Twenty μL of Solution B (0.02 mM of test and reference compounds) were spiked into the pre-loaded plasma in the 96-well plate. The final test concentration is 1 μM containing 0.2% DMSO.
For dialysis sample loading a plasma again buffer system was prepared by applying aliquots of 100 μL of blank dialysis buffer to the receiver side of dialysis chambers and then applying aliquots of 100 μL of the plasma spiked with test and reference compounds to the donor side of the dialysis chamber. A 25-μL aliquot of the plasma spiked with test and reference compounds was added into a 96-well sample preparation plate as T″0″ plasma samples. Aliquots were mixed with the same volume of blank buffer (50:50, volume:volume). Samples were quenched with 200 μL of acetonitrile containing internal standard. The dialysis block was covered and a shaken at 60 rpm for 5 hours at 37° C.
After a 5-hour incubation, dialyzed samples were prepared from 25-μL aliquots from both the donor and receiver sides of the dialysis apparatus into new sample preparation plates. The aliquots were mixed with same volume of opposite matrixes. The samples were quenched with 200 μL acetonitrile containing internal standard. All 0-hour and 5-hour samples were vortexed at 600 rpm for 10 min followed by centrifugation at 5594×g for 15 minutes (Thermo Multifuge×3R). Fifty μL of the supernatants were transferred to anew 96-well plate and mixed with 50 μL Milli-Q water. The sample plate was covered and frozen at −20° C. until LC/MS/MS analysis.

recombinant full-length human hydroxyacid oxidase 1 (HAO1), the equivalent of hGOX, sequence (Q9UJM8 whole entry): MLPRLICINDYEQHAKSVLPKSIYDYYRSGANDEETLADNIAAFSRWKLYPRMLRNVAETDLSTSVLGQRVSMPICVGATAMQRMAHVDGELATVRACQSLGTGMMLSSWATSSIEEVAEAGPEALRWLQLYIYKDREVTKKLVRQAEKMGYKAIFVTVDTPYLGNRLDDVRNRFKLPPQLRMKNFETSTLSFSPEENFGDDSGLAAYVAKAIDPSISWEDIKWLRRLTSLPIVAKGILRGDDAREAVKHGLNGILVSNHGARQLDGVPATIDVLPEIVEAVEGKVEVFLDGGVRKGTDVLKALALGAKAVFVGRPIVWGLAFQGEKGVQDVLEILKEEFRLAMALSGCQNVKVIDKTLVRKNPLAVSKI

Compound	IC50 [1] [nM]	solubility at 1 h [2] [µM]	solubility at 1 h [3] [µM]	CLint scaled at 1 μM [4] [mL/min/kg]	half-life at 1 μM [4] [h]	half-life at 2 μM [5] [h]	recovery at 5 h, 1 μM [6] [%]	fraction unbound at 5 h, 1 μM [6]
O=C(O)c1nn[nH]c1Oc1cccc(C2CCC2)c1 [Example I-279, 5-(3-Cyclobutylphenoxy)-1H-1,2,3-triazole-4-carboxylic acid]	32	112 (≈ 29.1 µg/mL)	111 (≈ 28.7 µg/mL)	4.98	5.82	2.61	98.2	–
CC(C)=Cc1ccc(Oc2[nH]nnc2C(=O)O)cc1 [Example I-287, 5-(4-(2-Methylprop-1-en-1-yl)phenoxy)-1H-1,2,3-triazole-4-carboxylic acid]	20	85.7 (≈ 22.2 µg/mL)	82.5 (≈ 21.4 µg/mL)	13.4	2.16	1.72	109	0.002
O=C(O)c1nn[nH]c1Oc1ccc(-c2ccc3c(c2)OCO3)cc1 [Example I-304, 5-(4-(Benzo[d][1,3]dioxol-5-yl)phenoxy)-1H-1,2,3-triazole-4-carboxylic acid]	4	111 (≈ 36.2 µg/mL)	115 (≈ 37.4 µg/mL)	5.47	5.3	6.68	105	0.007
O=C(O)c1nn[nH]c1Sc1ccc2ccccc2c1 [Example I-031, 5-(Naphthalen-2-ylthio)-1H-1,2,3-triazole-4-carboxylic acid]	69	121 (≈ 32.8 µg/mL)	110 (≈ 29.8 µg/mL)	2.21	13.1	1.25	117	–
CC(C)Cc1ccc(Oc2[nH]nnc2C(=O)O)cc1 [Example I-299, 5-(4-Isobutylphenoxy)-1H-1,2,3-triazole-4-carboxylic acid]	33	104 (≈ 27.1 µg/mL)	98.4 (≈ 25.7 µg/mL)	11.3	2.55	1.22	114	0.002
CCCC(C)c1cccc(Oc2[nH]nnc2C(=O)O)c1 (stereo not drawn) [Example I-277]	65	113 (≈ 31.1 µg/mL)	97.2 (≈ 26.8 µg/mL)	8.56	3.38	2.71	108	0.003
O=C(O)c1[nH]nnc1Oc1ccc(Cl)c(Cl)c1 [Example I-050, 5-(3,4-Dichlorophenoxy)-1H-1,2,3-triazole-4-carboxylic acid]	12	120 (≈ 33 µg/mL)	102 (≈ 28 µg/mL)	2.47	11.7	2.35	71.2	–
Cc1ccc(-c2ccc(Sc3[nH]nnc3C(=O)O)cc2)cc1 [Example I-129, 5-((4′-Methyl-[1,1′-biphenyl]-4-yl)thio)-1H-1,2,3-triazole-4-carboxylic acid]	41	116 (≈ 36.1 µg/mL)	72.7 (≈ 22.6 µg/mL)	21.6	1.34	1.44	113	–
O=C(O)c1[nH]nnc1Oc1ccc(C2CCCCC2)cc1 [Example I-266, 5-(4-Cyclohexylphenoxy)-1H-1,2,3-triazole-4-carboxylic acid]	30	96.5 (≈ 27.7 µg/mL)	108 (≈ 31 µg/mL)	26.4	1.1	3.11	101	–
COc1ccc(-c2ccc(Oc3[nH]nnc3C(=O)O)cc2)cc1 [Example I-153, 5-((4′-Methoxy-[1,1′-biphenyl]-4-yl)oxy)-1H-1,2,3-triazole-4-carboxylic acid]	10	–	–	–	–	3.11	116	0.103
O=C(O)c1nn[nH]c1Oc1ccc(S(F)(F)(F)(F)F)cc1 [Example I-049, 5-(4-Pentafluorosulfanylphenoxy)-1H-1,2,3-triazole-4-carboxylic acid]	50	–	–	–	–	3.65	107	0.006
Cc1ccc(-c2ccc(Oc3[nH]nnc3C(=O)O)cc2)cc1 [Example I-151, 5-((4′-Methyl-[1,1′-biphenyl]-4-yl)oxy)-1H-1,2,3-triazole-4-carboxylic acid]	11	83.2 (≈ 24.6 µg/mL)	53 (≈ 15.6 µg/mL)	< 0.15	> 83.3	0.669	–	–
